Earlier results, collected in US6316027A, “Fast-dissolving dosage forms for dopamine agonists” (priority 1995, dated 2001).

Legend:
[1] = acidic environment
[2] = not given; remark: listed apart in the source
[3] = not given; remark: listed apart in the source
[4] = sub-lingual tablets, prolonged use

CN1CCc2cccc3c2[C@H]1Cc1ccc(O)c(O)c1-3 [apomorphine, 5,6,6a,7-tetrahydro-6-methyl-4H-dibenzo quinoline-10; 11-diol]
nasal side effects (intranasal): transient nasal blockage, burning sensation and swollen nose and lips | presystemic metabolism (first pass effect) (oral tablets, small intestine and/or liver): extensive presystemic metabolism | blood urea nitrogen (oral, long-term studies, stopped after 7-10 days): unexplained rises in blood urea nitrogen | buccal mucosal ulceration, share of patients [4]: half the patients | stomatitis [4]: severe stomatitis | dopamine agonist side effects (subcutaneous): nausea and vomiting | chemical stability [1]: optimal chemical stability in an acidic environment

N[C@@H](Cc1ccc(O)c(O)c1)C(=O)O [levodopa]
fraction entering the brain ([2]; in vivo): less than 1% | absorption from the small intestine ([2]; oral): well absorbed from the small intestine | incidence of malignant melanoma ([3]; patients undergoing treatment with levodopa): increased incidence of malignant melanoma | involuntary movements on prolonged use ([3]; prolonged use): involuntary choreiform movements
